Experimental data from patent publication US4952580A, “Pesticidal polyhaloalkene derivatives” (priority 1988, dated 1990).
Read-outs that look alike come from different tables or passages of the source.

Legend:
[1] = tested on: root-knot nematode (Meloidogyne incognita); assay: Initial Root-Knot Nematicidal Activity; format: in vivo; settings: 336 h, read-out: Percent Control; for pest or weed control at 0.313 ppm: Table 2, Application Rate 0.313 ppm; for pest or weed control at 0.625 ppm: Table 2, Application Rate 0.625 ppm; for pest or weed control at 1.25 ppm: Table 2, Application Rate 1.25 ppm; for pest or weed control at 0.312 ppm: Table 2, Application Rate 0.312 ppm; for pest or weed control at 0.078 ppm: Table 2, Application Rate 0.078 ppm; for pest or weed control at 0.156 ppm: Table 2, Application Rate 0.156 ppm
Protocol: (§1) Compounds of this invention were tested as follows for nematicidal and anthelmintic activity as dust formulations (initial and residual activity) and as acetone/water formulations (systemic activity). The formulations are described above.
The activity against root-knot nematode (Meloidogyne incognita) was determined by incorporating the compound of the invention in nematode infested soil at rates in the range of 10 ppm to 0.078 ppm of compound. Several tomato or cucumber seedlings were planted in the nematode infested soil. Two weeks after planting the test pots were evaluated to ascertain the degree of galling (swelling) on the roots of the plants, indicating the control provided by the test chemical.
The results expressed as precent control (determined by knot index) are set forth as averages in Table 2 (appended). Knot index is a numerical designation assigned at evaluation, having the following meanings:
Percent control is related to knot index as follows:
When the Knot Index is between 0 and 1 it is further subdivided as follows to indicate how close the percent control is to 75% or 100%: […]

[2] = tested on: root-knot nematode; assay: Soil Mobility against root-knot nematode; format: in vivo, Meloidogyne incognita; settings: 336 h, Table 7a, 5% dust, 5 ppm, read-out: Percent Control
Protocol: as §1
The ability of nematicidal compounds of the invention to move through nematode-infested soil […] infested soil, and subsequently eluting the soil with 15 cm of water (equivalent to 15 cm of rainfall) into a series of two or more pots of untreated, but nematode-infested, soil. Specifically, the pots were 8 cm diameter plastic pots containing a 10 cm^3 layer of sand over a coarse grade filter paper disc. Sufficient soil was placed over the sand to fill the pots, and a second filter paper disc was placed over the soil. Each test compound-treated pot was nested over a series of two or more pots containing untreated, but nematode-infested soil, also containing sand filter paper discs as described for the treated soil pots. Fifteen cm of water was slowly dripped into the top pots and the pots were allowed to drain for 16-18 hours to remove excess water. The top filter of each pot was then removed and the pots were planted with a cucumber or tomato seedling. […] "Knot Index" and "Percent Control" are as defined in the initial root-knot nematode tests above.

[3] = tested on: Caenorhabditis elegans; assay: C. Elegans Nematode Screening Test and Evaluation (in-vitro); settings: for inhibition at 5 ppm / mortality at 5 ppm / inhibition at 1.25 ppm / mortality at 1.25 ppm / inhibition at 2.5 ppm / mortality at 2.5 ppm: Caenorhabditis elegans; for inhibition at 5 ppm / inhibition at 1.25 ppm / inhibition at 2.5 ppm: read-out: Percent Inhibition of Reproduction; for mortality at 5 ppm / mortality at 1.25 ppm / mortality at 2.5 ppm: read-out: Percent Mortality
Protocol: This in-vitro test using the free-living nematode Caenorhabditis elegans, is a modification of the assay developed by Simpkin and Coles, J. Chem. Tech. […] One milliliter of a test medium consisting of 5 mg ampicillin, 10,000 units of mycostatin and 10 ml of a dense suspension of Escherichia coli per 100 ml of a buffer solution, was pipetted into each well of a 24-well microtiter plate. The candidate nematicide, suspended at the appropriate concentration in dimethylsulfoxide, was added to the wells in […] volumes. Each rate of application was replicated two to three times. After thorough mixing of the contents of each well, 50 to 100 μl of a nematode suspension in a buffer was added so that each well received 10-15 nematodes. After the nematodes were added, the microtiter plates were incubated at 20° C. for 5-6 days.
The effect of the candidate nematicide on the survival and the reproduction of C. elegans was then evaluated by comparison of the level of population developed in the treated wells with that in untreated wells. Specific effects on population development, such as reduced egg hatch or molting disruption, were noted if they were evident.

[4] = tested on: lesion nematode; assay: Lesion Nematode Test; format: in vivo; settings: read-out: Percent Control
Protocol: as §1
The procedure was substantially the same as in the stunt nematode test described above except that pea seedlings were used. The results (Table 5 appended) show good control with many of the compounds at the application rates tested as compared with untreated samples (no control). "Percent Control" is defined as follows: [formula]

[5] = Table 2, Application Rate 2.5 ppm
[6] = Table 2, Application Rate 5.0 ppm
[7] = Table 2, Application Rate 10.0 ppm

O=C(CSC1=NCCS1)OCCC(F)=C(F)F [Compound 23, (3,4,4-trifluoro-3-butenyl) [2-(4,5-dihydrothiazolyl)thio]acetate]
pest or weed control at 2.5 ppm [1, 5]: 76% | pest or weed control at 5 ppm [1, 6]: 84% | pest or weed control at 10 ppm [1, 7]: 96%

O=C(OCCC(F)=C(F)F)C(F)(F)C(F)(F)F [Compound 19, (3,4,4-trifluoro-3-butenyl) pentafluoropropionate, mono diethyl etherate]
pest or weed control at 2.5 ppm [1, 5]: 58% | pest or weed control at 5 ppm [1, 6]: 75% | pest or weed control at 10 ppm [1, 7]: 69%

O=C(OCCC(F)=C(F)F)c1ccc[nH]1 [Compound 22, (3,4,4-trifluoro-3-butenyl) 2-pyrrolecarboxylate]
pest or weed control at 0.313 ppm [1]: 0% | pest or weed control at 0.625 ppm [1]: 0% | pest or weed control at 1.25 ppm [1]: 44% | pest or weed control at 2.5 ppm [1, 5]: 96%

FC(F)=C(F)CCSc1nc(Cc2ccc(F)cc2)no1 [Compound 38, 3-(4-fluorophenylmethyl)-5-(3,4,4-trifluoro-3-butenylthio)-1,2,4-oxadiazole]
pest or weed control at 0.312 ppm [1]: 63% | pest or weed control at 0.625 ppm [1]: 76% | pest or weed control at 1.25 ppm [1]: 96% | pest or weed control at 2.5 ppm [1, 5]: 98% | pest or weed control at 5 ppm ([2]; BOTTOM container): 0% | pest or weed control at 5 ppm ([2]; MIDDLE container): 0% | pest or weed control at 5 ppm ([2]; TOP container): 0%

O=[N+]([O-])c1ccc(CSc2nsc(SCCC(F)=C(F)F)n2)cc1 [Compound 26, 3-(4-nitrophenylmethylthio)-5-(3,4,4-trifluoro-3-butenylthio)-1,2,4-thiadiazole]
pest or weed control at 0.312 ppm [1]: 0% | pest or weed control at 0.625 ppm [1]: 0% | pest or weed control at 1.25 ppm [1]: 63% | pest or weed control at 2.5 ppm [1, 5]: 86% | inhibition at 5 ppm ([3]; Table 9 screen, 5 ppm): 100% | mortality at 5 ppm ([3]; Table 9 screen, 5 ppm): 100% | mortality at 5 ppm ([3]; Table 10 evaluation, 5 ppm): 100% | inhibition at 1.25 ppm ([3]; Table 10 evaluation, 1.25 ppm): 100% | mortality at 1.25 ppm ([3]; Table 10 evaluation, 1.25 ppm): 100% | inhibition at 2.5 ppm ([3]; Table 10 evaluation, 2.5 ppm): 100% | mortality at 2.5 ppm ([3]; Table 10 evaluation, 2.5 ppm): 100%

C#CCSc1nnc(SCCC(F)=C(F)F)s1 [Compound 14, 2-propargylthio-5-(3,4,4-trifluoro-3-butenylthio)-1,3,4-thiadiazole]
pest or weed control at 0.313 ppm [1]: 0% | pest or weed control at 0.625 ppm [1]: 0% | pest or weed control at 1.25 ppm [1]: 25% | pest or weed control at 2.5 ppm [1, 5]: 83%

FC(F)=C(F)CCSc1nnc(-c2ccc(Cl)cc2)s1 [Compound 37, 2-(4-chlorophenyl)-5-(3,4,4-trifluoro-3-butenylthio)-1,3,4-thiadiazole]
pest or weed control at 0.078 ppm [1]: 0% | pest or weed control at 0.156 ppm [1]: 0% | pest or weed control at 0.312 ppm [1]: 0% | pest or weed control at 0.625 ppm [1]: 0% | inhibition at 5 ppm ([3]; Table 9 screen, 5 ppm): 100% | mortality at 5 ppm ([3]; Table 9 screen, 5 ppm): 100% | mortality at 5 ppm ([3]; Table 10 evaluation, 5 ppm): 100% | inhibition at 1.25 ppm ([3]; Table 10 evaluation, 1.25 ppm): 100% | mortality at 1.25 ppm ([3]; Table 10 evaluation, 1.25 ppm): 100% | inhibition at 2.5 ppm ([3]; Table 10 evaluation, 2.5 ppm): 100% | mortality at 2.5 ppm ([3]; Table 10 evaluation, 2.5 ppm): 100%

FC(F)=C(F)CCSCc1cc2ccccc2s1 [Compound 11, 2-(3,4,4-trifluoro-3-butenylthiomethyl)-thianaphthene]
pest or weed control at 0.625 ppm [1]: 0% | pest or weed control at 1.25 ppm [1]: 67% | pest or weed control at 2.5 ppm [1, 5]: 78% | pest or weed control at 5 ppm [1, 6]: 83%

O=C(OCCC(F)=C(F)F)c1cccs1 [Compound 20]
pest or weed control at 0.313 ppm [1]: 0% | pest or weed control at 0.625 ppm [1]: 6% | pest or weed control at 1.25 ppm [1]: 63% | pest or weed control at 2.5 ppm [1, 5]: 98%

FC(F)=C(F)CCSc1cccs1 [Compound 10, 2-(3,4,4-trifluoro-3-butenylthio)thiopene]
pest or weed control at 0.625 ppm [1]: 63% | pest or weed control at 1.25 ppm [1]: 81% | pest or weed control at 5 ppm [1, 6]: 99% | pest or weed control at 2.5 ppm [1]: 95% | pest or weed control at 2.5 ppm [4]: 33%

O=C1CCC(=O)N1CCC(F)=C(F)F [Compound 5, N-(3,4,4-trifluoro-3-butenyl)succinimide]
pest or weed control at 0.313 ppm [1]: 0% | pest or weed control at 0.625 ppm [1]: 6% | pest or weed control at 1.25 ppm [1]: 70% | pest or weed control at 2.5 ppm [1, 5]: 81%

OCCCC(F)=C(F)F [Compound 7, 4,5,5-trifluoro-4-penten-1-ol]
pest or weed control at 2.5 ppm [1, 5]: 25% | pest or weed control at 5 ppm [1, 6]: 44% | pest or weed control at 10 ppm [1, 7]: 79%

O=C1c2ccccc2S(=O)(=O)N1CCC(F)=C(F)F [Compound 24, N-(3,4,4-trifluoro-3-butenyl)saccharine]
pest or weed control at 2.5 ppm [1, 5]: 19% | pest or weed control at 5 ppm [1, 6]: 63% | pest or weed control at 10 ppm [1, 7]: 78%

FC(F)=C(F)CCSc1nc(-c2ccc(Cl)cc2)no1 [Compound 39, 3-(4-chlorophenyl)-5-(3,4,4-trifluoro-3-butenylthio)-1,2,4-oxadiazole]
pest or weed control at 0.312 ppm [1]: 19% | pest or weed control at 0.625 ppm [1]: 84% | pest or weed control at 1.25 ppm [1]: 98% | pest or weed control at 2.5 ppm [1, 5]: 100% | inhibition at 5 ppm ([3]; Table 9 screen, 5 ppm): 100% | mortality at 5 ppm ([3]; Table 9 screen, 5 ppm): 100% | mortality at 5 ppm ([3]; Table 10 evaluation, 5 ppm): 100% | inhibition at 1.25 ppm ([3]; Table 10 evaluation, 1.25 ppm): 100% | mortality at 1.25 ppm ([3]; Table 10 evaluation, 1.25 ppm): 67% | inhibition at 2.5 ppm ([3]; Table 10 evaluation, 2.5 ppm): 100% | mortality at 2.5 ppm ([3]; Table 10 evaluation, 2.5 ppm): 100% | Percent Mortality ([3]; Table 10 evaluation, 1.25 ppm): 58% | Percent Mortality ([3]; Table 10 evaluation, 2.5 ppm): 100% | Percent Mortality ([3]; Table 10 evaluation, 5 ppm): 100%

FC(F)=C(F)CCSc1nnc(SCc2ccccc2F)s1 [Compound 34, 2-(2-fluorophenylmethylthio)-5-(3,4,4-trifluoro-3-butenylthio)-1,3,4-thiadiazole]
pest or weed control at 0.078 ppm [1]: 38% | pest or weed control at 0.156 ppm [1]: 64% | pest or weed control at 0.312 ppm [1]: 86% | pest or weed control at 0.625 ppm [1]: 99% | pest or weed control at 1.25 ppm [1]: 99% | pest or weed control at 2.5 ppm [1, 5]: 100% | pest or weed control at 2.5 ppm ([4]; Table 5, rate 2.5 ppm): 52% | pest or weed control at 5 ppm ([2]; BOTTOM container): 8% | pest or weed control at 5 ppm ([2]; MIDDLE container): 67% | pest or weed control at 5 ppm ([2]; TOP container): 98% | inhibition at 5 ppm ([3]; Table 9 screen, 5 ppm): 100% | mortality at 5 ppm ([3]; Table 9 screen, 5 ppm): 25% | mortality at 5 ppm ([3]; Table 10 evaluation, 5 ppm): 100% | inhibition at 1.25 ppm ([3]; Table 10 evaluation, 1.25 ppm): 0% | mortality at 1.25 ppm ([3]; Table 10 evaluation, 1.25 ppm): 0% | inhibition at 2.5 ppm ([3]; Table 10 evaluation, 2.5 ppm): 100% | mortality at 2.5 ppm ([3]; Table 10 evaluation, 2.5 ppm): 100%

O=C(OCCC(F)=C(F)F)c1ccc(Cl)cc1 [Compound 4, (3,4,4-trifluoro-3-butenyl) 4-chlorobenzoate]
pest or weed control at 0.313 ppm [1]: 38% | pest or weed control at 0.625 ppm [1]: 44% | pest or weed control at 1.25 ppm [1]: 56% | pest or weed control at 2.5 ppm [1, 5]: 99%

O=C(OCCC(F)=C(F)F)C(F)(F)C(F)(F)C(F)(F)F [Compound 3, (3,4,4-trifluoro-3-butenyl) heptafluorobutyrate]
pest or weed control at 2.5 ppm [1]: 71% | pest or weed control at 5 ppm [1]: 83% | pest or weed control at 10 ppm [1]: 95%

O=[N+]([O-])c1ccc(-c2noc(SCCC(F)=C(F)F)n2)cc1 [Compound 40, 3-(4-nitrophenyl)-5-(3,4,4-trifluoro-3-butenylthio)-1,2,4-oxadiazole]
pest or weed control at 0.312 ppm [1]: 0% | pest or weed control at 0.625 ppm [1]: 56% | pest or weed control at 1.25 ppm [1]: 84% | pest or weed control at 2.5 ppm [1, 5]: 99% | inhibition at 5 ppm ([3]; Table 10 evaluation, 5 ppm): 100% | mortality at 5 ppm ([3]; Table 10 evaluation, 5 ppm): 100% | inhibition at 1.25 ppm ([3]; Table 10 evaluation, 1.25 ppm): 100% | mortality at 1.25 ppm ([3]; Table 10 evaluation, 1.25 ppm): 100% | inhibition at 2.5 ppm ([3]; Table 10 evaluation, 2.5 ppm): 100% | mortality at 2.5 ppm ([3]; Table 10 evaluation, 2.5 ppm): 100%
